Tests used:
Type in all cases: in vivo
PR3 [1] = assay: Bone marrow PR3 activity after repeated dosing, Sprague Dawley rats; details: for Reduction of PR3 activity vs vehicle / Change From Vehicle Control (%) PR3: 9 days
Procedure: (§1) Briefly, animals were weighed and randomized into different treatment groups. In total, three different dosing levels of brensocatib were tested in each species and strain; each QD dosing level was equivalent to 1.5-times the matching daily BID dose. For BID dosing, the second daily dose was administered 8-h post the morning dose. C57BL/6 mice were dosed either BID or QD for 7 consecutive days at 0/0, 0.5/0.75, 2/3, and 20/30 mg/kg/day (BID/QD). BALB/c mice were dosed for 7 consecutive days at 0/0, 0.2/0.3, 2/3, and 20/30 mg/kg/day (BID/QD). SD rats were dosed for 9 consecutive days at 0/0, 0.2/0.3, 2/3, and 20/30 mg/kg/day (BID/QD). Wistar rats were dosed for 7 consecutive days at 0/0, 0.2/0.3, 2/3, and 20/30 mg/kg/day (BID/QD).
(§2) At the completion of the study, animals were sacrificed 16–24 h post their final dose. The hind limb bones (femurs and tibias) were collected at necropsy for bone marrow analysis of NSP activities by kinetic enzymatic assays ([Basso et al., 2022]). See section Quantification of Bone Marrow NSP Activities for details.
(§3) For the mice, each animal had the femurs and tibias of both hind limbs harvested. For the rat, the femur and tibia from a single hind limb per animal was harvested. Bones were kept on wet ice until processing for bone marrow collection. In brief, bone cutters were used to cut the epiphysis (knobby ends) off the long bones to expose the bone marrow filled cavity. Each bone cavity was then flushed with 5 mL/bone (mouse) or 10 mL/bone (rat) of ice-cold RPMI media through a […] and collected in a 50-mL conical tube. Cells were spun down at 2,500 × g at 4°C for 5 min and the supernatant was aspirated. After which, bone marrow cells were lysed with 1X red blood cell (RBC) lysis buffer (Abcam, ab204733) to eliminate contaminating RBCs and washed with PBS to remove any residual RBC lysis buffer. The resulting white blood cells (WBC) were subsequently lysed with 1% (v/v) Triton X-100 in PBS. Lysates were added to 96-well plates and stored at −80°C until NSP analyses.
(§4) Bone marrow lysates prepared as described above were diluted and plated onto 96-well assay plates to quantify NSP activities as described previously ([Basso et al., 2022]). Briefly, peptide substrates for NE (N-Methoxysuccinyl-Ala-Ala-Pro-Val-7-amido-4-methylcoumarin; Sigma; St. Louis, MO; Excitation/Emission at 350/450 nm), PR3 ((7-Methoxycoumarin-4-yl)acetyl-lysyl-(picolinoyl)-Tyr-Asp-Ala-Lys-Gly-Asp-N-3-(2-4-dinitrophenyl)-2-3-diaminopropyonyl-NH2); GenScript; Piscataway, NJ; Excitation/Emission at 340/430 nm), and CatG (N-Succinyl-Ala-Ala-Pro-Phe p nitroanilide; Sigma; Absorbance at 405 nm) were added at a final assay concentration of 100 μM, 40 μM, and 200 μM, respectively, and either fluorescence or absorbance was quantified using a Synergy microplate reader (BioTek; Winooski, VT). The specific NSP activity in each sample was calculated as the total activity minus the activity in the presence of a specific NSP inhibitor (if used), including elastase inhibitor (Abcam) for NE, sivelestat (Abcam) for PR3, and cathepsin G inhibitor I (Cayman Chemical; Ann Arbor, MI) for CatG. NSP concentrations were interpolated based on their activities relative to the standard curves created using active human NE protein (Sigma), active human PR3 protein (Sigma), and active human CatG protein (Sigma), respectively. Due to unavailability of commercial mouse and/or rat NE, PR3, and CatG proteins, the corresponding human proteins were used instead since their catalytic ability is considered to be conserved across species. A portion of each cell lysate sample was retained for protein quantification using a Pierce™ BCA Protein Assay Kit (Thermo Fisher). The NSP activities were normalized for the cell lysate protein concentrations.
(§5) The Pierce™ BCA Protein Assay Kit was used to measure the total protein of the samples after lysis to allow for subsequent normalization. […]

NE = assay: Bone marrow NE activity after repeated dosing, Sprague Dawley rats; details: for Reduction of NE activity vs vehicle / Change From Vehicle Control (%) NE: 9 days
Procedure: as §1, §2, §3, §4, §5

PR3 [2] = assay: Bone marrow PR3 activity after repeated dosing, Wistar rats; details: for Reduction of PR3 activity vs vehicle / Change From Vehicle Control (%) PR3: 7 days
Procedure: as §1, §2, §3, §4, §5

[3] = BID highest dose (20 mg/kg/day)
[4] = highest dose level 20/30 (BID/QD) mg/kg/day

Cn1c(=O)oc2ccc(-c3ccc(C[C@@H](C#N)NC(=O)[C@@H]4CNCCCO4)cc3)cc21 [brensocatib]
Reduction of PR3 activity vs vehicle (PR3 [1]; [3]): 68%
Reduction of PR3 activity vs vehicle (PR3 [1]; QD highest dose (30 mg/kg/day)): 72%
Combined BID and QD percent reduction, PR3 (PR3 [1]; [4]): 70%
Change From Vehicle Control (%) PR3 (PR3 [1]; oral BID 0.2 mg/kg/day): +23% (p = 0.8292)
Change From Vehicle Control (%) PR3 (PR3 [1]; oral BID 2 mg/kg/day): −31% (p = 0.6727)
Change From Vehicle Control (%) PR3 (PR3 [1]; oral BID 20 mg/kg/day): −68% (p = 0.0907)
Change From Vehicle Control (%) PR3 (PR3 [1]; oral QD 0.3 mg/kg/day): −34% (p = 0.4869)
Change From Vehicle Control (%) PR3 (PR3 [1]; oral QD 3 mg/kg/day): −59% (p = 0.0837)
Change From Vehicle Control (%) PR3 (PR3 [1]; oral QD 30 mg/kg/day): −72% (p = 0.0285)
Reduction of NE activity vs vehicle (NE; [3]): 38%
Reduction of NE activity vs vehicle (NE; QD highest dose (30 mg/kg/day)): 36%
Combined BID and QD percent reduction, NE (NE; [4]): 37%
Change From Vehicle Control (%) NE (NE; oral BID 0.2 mg/kg/day): +6% (p = 0.6846)
Change From Vehicle Control (%) NE (NE; oral BID 2 mg/kg/day): −18% (p = 0.0243)
Change From Vehicle Control (%) NE (NE; oral BID 20 mg/kg/day): −38% (p < 0.0001)
Change From Vehicle Control (%) NE (NE; oral QD 0.3 mg/kg/day): −2% (p = 0.9973)
Change From Vehicle Control (%) NE (NE; oral QD 3 mg/kg/day): −19% (p = 0.2196)
Change From Vehicle Control (%) NE (NE; oral QD 30 mg/kg/day): −36% (p = 0.0078)
Reduction of PR3 activity vs vehicle (PR3 [2]; [3]): 46%
Reduction of PR3 activity vs vehicle (PR3 [2]; QD highest dose (30 mg/kg/day)): 59%
Combined BID and QD percent reduction, PR3 (PR3 [2]; [4]): 53%
Change From Vehicle Control (%) PR3 (PR3 [2]; oral BID 0.2 mg/kg/day): +10% (p = 0.9848)
Change From Vehicle Control (%) PR3 (PR3 [2]; oral BID 2 mg/kg/day): +22% (p = 0.8768)
Change From Vehicle Control (%) PR3 (PR3 [2]; oral BID 20 mg/kg/day): −46% (p = 0.4135)
Change From Vehicle Control (%) PR3 (PR3 [2]; oral QD 0.3 mg/kg/day): +6% (p = 0.9963)
Change From Vehicle Control (%) PR3 (PR3 [2]; oral QD 3 mg/kg/day): −35% (p = 0.5635)
Change From Vehicle Control (%) PR3 (PR3 [2]; oral QD 30 mg/kg/day): −59% (p = 0.1437)
